Laboratory results: US5849782A, “Methods of inhibiting neurodegenerative diseases” (The General Hospital Corporation, priority 1996, dated 1998)

Legend:
Male Swiss-Webster mice [1] = test: MPTP-induced neurotoxicity in mice: striatal dopamine, DOPAC, HVA; assay type: in vivo, mouse; conditions: at 1 week
Protocol: Methods. Male Swiss-Webster mice (30-35 g:Taconic Farms, Germantown, N.Y., U.S.A.) were treated with either normal saline or MPTP hydrochloride (Research Biochemicals, Natick, Mass., U.S.A.). MPTP was administered in 0.1 ml of water at a dose of 10 mg/kg i.p. at 2-h intervals for six doses or 20 mg/kg i.p. at 2-h intervals for four doses. 7-NI (Cookson Chemical Ltd., Southhampton, U.K.) was dissolved in peanut oil (Sigma, St. Louis, Mo., U.S.A.) at a concentration of 5 mg/ml. Mice received doses of 25 or 50 mg/kg per subcutaneous injection. MPTP-treated animals were treated with peanut oil or 7-NI 12 h before the first, at every MPTP injection, and every 8 h for 48 h after MPTP injections. Eleven to 12 animals were used in each group. Animals were killed at 1 week. The two striata were rapidly dissected and placed in chilled 0.1M perchloric acid. Tissue was subsequently sonicated, and aliquots were taken for protein quantification using a fluorometric assay (Beal et al., 1990) J. Neurochem. 55:1327-1339).
(§1) Dopamine, 3,4-dihydroxyphenlyacetic acid (DOPAC), homovanillic acid (HVA), p-tyrosine, and 3-nitrotyrosine were quantified by HPLC with 16-electrode electrochemical detection (Beal et al. (1990) supra) and are expressed as ng/mg protein (mean±SEM) (FIG. 1). 3-Nitrotyrosine data are expressed as ratios of 3-nitrotyrosine to p-tyrosine to normalize for differing brain concentrations of tyrosine. The statistical significance of differences was determined via one-way ANOVA followed by Fisher PLSD post hoc test to compare group means. All animal use procedures were in strict accordance with the NIH Guide for the Care and Use of Laboratory Animals and were approved by the local Animal Care Committee.

Male Swiss-Webster mice [2] = test: 3-nitrotyrosine to tyrosine ratio in mouse striatum after MPTP; assay type: in vivo; conditions: MPTP 20 mg/kg x4; 7-NI 25 or 50 mg/kg
Protocol: as §1
Role of Peroxynitrite in MPTP. To determine whether peroxynitrite plays a role in MPTP neurotoxicity, we therefore measured the ratio of 3-nitrotyrosine to tyrosine in mouse striatum following administration of MPTP.

MAO-B = molecular target: T1, MAO-B (Mus musculus, UniProt Q8BW75); test: MAO-B activity in vitro, mitochondrial fraction of mouse forebrain; assay type: biochemical; conditions: at 1, 10, and 100 μM
T1 construct: Crude mitochondrial preparations were obtain from the forebrains; from tissue; host or cells: mouse forebrain, crude mitochondrial fraction (P2 pellet on a discontinuous Ficoll gradient)
T1 sequence (Q8BW75 1-520): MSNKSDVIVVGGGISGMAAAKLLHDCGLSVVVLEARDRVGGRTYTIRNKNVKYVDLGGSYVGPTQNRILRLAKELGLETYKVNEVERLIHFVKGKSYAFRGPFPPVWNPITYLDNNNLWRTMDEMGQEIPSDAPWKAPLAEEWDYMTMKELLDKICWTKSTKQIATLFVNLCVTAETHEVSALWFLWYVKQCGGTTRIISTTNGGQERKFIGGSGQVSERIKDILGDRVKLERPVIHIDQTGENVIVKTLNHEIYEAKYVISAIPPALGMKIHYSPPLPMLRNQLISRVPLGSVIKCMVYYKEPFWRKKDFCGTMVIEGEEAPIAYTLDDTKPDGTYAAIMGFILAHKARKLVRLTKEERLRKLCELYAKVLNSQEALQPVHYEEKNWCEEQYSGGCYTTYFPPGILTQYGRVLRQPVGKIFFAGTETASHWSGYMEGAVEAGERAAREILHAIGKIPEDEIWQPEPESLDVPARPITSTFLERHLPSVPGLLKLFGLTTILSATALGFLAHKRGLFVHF

Male Sprague-Dawley rats [3] = test: Body temperature in rats under pentobarbital anesthesia; assay type: in vivo, rat; conditions: 1 h after 50 mg/kg 7-NI i.p., control 36.5±0.1, p<0.02
Protocol: Stereotaxic Lesion Technique. Male Sprague-Dawley rats (Charles River, Cambridge, Mass.) weighing 300-325 g were anesthetized with pentobarbital (50 mg/kg i.p.) and positioned in a David Kopf stereotaxic instrument with the incisor bar set at 3.3 mm below the intermural line. Malonate, NMDA, KA, and AMPA were dissolved in 0.1M phosphate-buffered saline (pH, 7.4). Intrastriatal injections were made with a 10 μl Hamilton syringe fitted with a 30 gauge blunt-tipped needle into the left striatum at the coordinates 0.5 mm anterior bregma, 2.6 mm lateral to the midline and 5 mm ventral to the dura. Injection volumes were 1 μl (3 μmol malonate). All injections were made over 1 min and the needle was left in place for an additional 1 min before being slowly withdrawn. 7-NI was dissolved and sonicated in peanut oil at a concentration of 10 mg/ml. 50 mg/kg of 7-NI were administered i.p. 30 min before striatal injections of malonate, NMDA, KA and AMPA. […] Nine to ten animals were used per group in each experiment.

Male Sprague-Dawley rats [4] = test: Striatal lesions produced by intrastriatal malonate (TTC staining); assay type: in vivo, rat; conditions: 7-NI 25 and 50 mg/kg i.p. 0.5 h before malonate
Protocol: Stereotaxic Lesion Technique. Male Sprague-Dawley rats (Charles River, Cambridge, Mass.) weighing 300-325 g were anesthetized with pentobarbital (50 mg/kg i.p.) and positioned in a David Kopf stereotaxic instrument with the incisor bar set at 3.3 mm below the intermural line. Malonate, NMDA, KA, and AMPA were dissolved in 0.1M phosphate-buffered saline (pH, 7.4). Intrastriatal injections were made with a 10 μl Hamilton syringe fitted with a 30 gauge blunt-tipped needle into the left striatum at the coordinates 0.5 mm anterior bregma, 2.6 mm lateral to the midline and 5 mm ventral to the dura. Injection volumes were 1 μl (3 μmol malonate). […]
Quantification of Lesion Volume. […] (Bederson et al. (1986) Stroke 17:1304-1308.) The lesioned area (noted by pale staining) was measured on the posterior surface of each section using an Apple Macintosh.COPYRGT. based image analysis system (Sony color video camera, Software: ColorSnap.COPYRGT. (Computer Friends Inc., Portland, Oreg.) and IPLab Spectrum.COPYRGT. (Signal Analytics, Vienna, Va.)). The lesions were evaluated by an experienced histologist, who verified the reliability of the TTC measurements in animals injected with malonate on adjacent sections stained with either TTC or Nissl stain (Schulz et al. (1995) J. Neurochem 64:in press).

[5] = Yoshida et al. 1994; cited from earlier work
mice = test: Rectal temperature in mice; conditions: 7-NI 50 mg/kg
Protocol: To exclude the possibility that hypothermia may contribute to the protection, we maintained body temperature at 37.5° C. in controls, mice treated with four doses of MPTP at 20 mg/kg, and mice additionally treated with 7-NI (n=6 per group).

Male Sprague-Dawley rats [6] = test: Spontaneous striatal electrophysiological activity; conditions: 60 minutes after 50 mg/kg 7-NI; urethane anesthetized rats
Protocol: Electrophysiology. Four male Sprague-Dawley rats weighing 300 to 400 g were used for electrophysiological studies. Animals were anesthetized with urethane 1.5 g/kg i.p. and placed in a stereotaxic apparatus with their body temperatures maintained at 37° C. by a feedback heating pad. A 0.5×0.5 cm craniotomy was made and recording electrodes were placed in the anterior striatum using stereotaxic coordinates and aural monitoring. Following electrode placement the craniotomy was covered with 4% agar in saline and 30 min were allowed for stabilization before recordings were made. The spontaneous activity of multiple units were recorded extracellularly in the striatum, 3-4 mm anterior to the bregma and 3-4 mm lateral to the midline at a depth of 2.5-4.0 mm using commercially available tungsten microelectrodes (4 M.OMEGA. at 1 kHz, F. Haer, Inc.). […] Data acquisition and analysis of mean firing rate was performed using Discovery.COPYRGT., Experimenters WorkBench.COPYRGT. and Personal Scientific Workstation.COPYRGT. software (DataWave Technologies, Longmont, Colo.). We investigated the electrophysiological effects of the NMDA antagonist MK-801 and the NOS inhibitor 7-NI. […] Finally, spontaneous activity was recorded after the NMDA channel mediated activity was blocked by injection of MK-801 (4 mg/kg).

dopamine transporter = dopamine transporter (Mus musculus, UniProt Q61327); conditions: at 1, 10 and 100 μM; 0.13 μM [3H]-dopamine
dopamine transporter, sequence (Q61327 whole entry): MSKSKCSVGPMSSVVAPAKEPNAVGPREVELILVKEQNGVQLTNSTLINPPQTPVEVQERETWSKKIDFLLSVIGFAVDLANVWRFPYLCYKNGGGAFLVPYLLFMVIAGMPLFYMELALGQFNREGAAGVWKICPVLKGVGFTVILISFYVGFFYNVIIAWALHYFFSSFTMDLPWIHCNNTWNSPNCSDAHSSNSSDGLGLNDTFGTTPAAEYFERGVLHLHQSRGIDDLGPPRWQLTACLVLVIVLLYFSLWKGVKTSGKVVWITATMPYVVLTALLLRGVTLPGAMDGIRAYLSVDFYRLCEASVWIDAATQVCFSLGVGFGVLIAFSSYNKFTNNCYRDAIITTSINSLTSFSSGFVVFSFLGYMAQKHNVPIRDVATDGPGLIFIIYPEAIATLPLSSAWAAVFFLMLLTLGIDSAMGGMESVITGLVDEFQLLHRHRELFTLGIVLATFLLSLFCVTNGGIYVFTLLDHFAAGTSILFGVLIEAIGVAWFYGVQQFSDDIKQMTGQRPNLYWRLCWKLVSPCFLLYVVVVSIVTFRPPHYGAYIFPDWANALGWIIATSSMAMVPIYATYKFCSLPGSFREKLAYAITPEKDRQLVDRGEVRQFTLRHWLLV

O=[N+]([O-])c1cccc2cn[nH]c12 [7-NI, 7-nitroindazole]
striatal dopamine, % of control values (Male Swiss-Webster mice [1]; MPTP 10 mg/kg i.p. x6 at 2-h intervals, 7-NI 50 mg/kg s.c.): 92 % of control values
protection against MPTP-induced depletions of dopamine, HVA and DOPAC (Male Swiss-Webster mice [1]; MPTP 20 mg/kg i.p. x4, 7-NI 50 mg/kg): almost complete protection
MPTP-induced increase of 3-nitrotyrosine to tyrosine ratio in striatum (Male Swiss-Webster mice [2]): significantly attenuated
inhibition of MAO-B activity in vitro (MAO-B): did not inhibit
body temperature (Male Sprague-Dawley rats [3]): 35.9±0.26 ° c.
striatal lesion produced by 3 μmol malonate (Male Sprague-Dawley rats [4]): significantly and dose dependently attenuated
efficacy against focal ischemic lesions in vivo [5]: efficacious
decrease in rectal temperature vs peanut oil controls (mice; 0.5 h after injection, p=0.03): 0.6 °C
rectal temperature (mice; 0.5 h after injection, peanut oil controls 36.8±0.2): 36.2±0.1 °C
change in rectal temperature vs peanut oil controls (mice; 1 h after injection): no significant decrease
mean spontaneous firing rate in striatum (Male Sprague-Dawley rats [6]): not significantly different from the baseline
inhibition of [3H]dopamine uptake into synaptosomes (dopamine transporter): did not inhibit
